The values below come from patent US6011019A, “Vasoactive effects and free radical generation by β-amyloid peptides” (University of South Florida, priority 1996, dated 2000).

Data set [1] deals with rat coronary arteries. Kind of data set: Rat coronary artery constriction and relaxation (U46619, acetylcholine). The note with it: for constriction of rat coronary artery by the peptide: 10^-6 M peptide. As for the experimental part:
The effects of β-amyloid peptide were examined on samples of rat coronary arteries prepared as described above. Referring specifically to FIG. 1, rat coronary arteries were treated with β-amyloid peptide (Aβ40) causing constriction of the coronary arteries.
FIG. 3 illustrates the effect of various amyloid fragments on the constriction of rat coronary arteries. Following control constriction with 10^-7 M U46619, the tissue samples were rinsed, equilibrated with buffer, and treated with 10^-6 M Aβ peptides for fifteen minutes. Following treatment with the Aβ peptides, the blood vessels were rinsed and again exposed to U46619. The values are expressed as percent of control constriction produced by U46619 alone.
The effect of pretreatment of coronary arteries with a single dose (10^-6 M) of A40 on acetylcholine induced relaxation is shown in FIG. 20. The blood vessel was preconstricted with 10^-7 M U46619 and relaxed with increasing doses of acetylcholine (10^-9 M to 10^-5 M).

Data set [2] concerns rat aorta. Put plainly: Enhancement of endothelin-1 (ET-1) induced vasoconstriction of rat aorta. On the procedure: Normal Sprague-Dawley rats were sacrificed by decapitation, and freshly dissected rat aorta was segmented into rings and suspended in Ringers buffer using a tensiometer linked to the MacLab system. Following a two hour equilibration period, the "pretreatment" contraction was carried out. The aortic rings were contracted using a range of doses of endothelin-1 and relaxed using a single odes of acetylcholing (Ach(10^-7 M)). […] The dose of each Aβ peptide was 1 μM, with the exception of Aβ25-35 (1 μM and 5 μM), and was added ten minutes prior to the first ET-1 dose. For SOD treatment we added 150 U/ml 30 seconds before the addition of Aβ.
Endothelium was removed by gently passing a glass pipette, dipped in saline solution, through the lumen of the aortae several time, allowing the pipette to gently brush the endothelial surface. Endothelium was removed from the aortae prior to hanging in the tissue bath system. Both pre-and post treatment contractions involved a single does of ET-1 (5×10^-9 M).
(§1) In all cases the mean difference in percentage contraction in the pre- and post-contractions (before and after addition of test compound respectively) was measured, and compared between the two. Endogenous production of ET-1 was measured using an ET-1 RIA kit (Peninsula Laboratories).

Data set [3] concerns human aortic endothelial cel line (HAEC).
Experimental: All these cells were maintained at 37° C., under an atmosphere containing 5% CO2. For the present experiments, HAEC and BE(2)-M17 were seeded at densities of 2×10^4 cells per well in 24-23ll clusters.
The experiments were terminated one half, one, two and three hours post treatment by detachment with Trypsin/EDTA solution and followed by a toxicity assay with trypan blue exclusion. In parallel experiments, cells were attached to a round Thermanox (Nunc) at the bottom of the well, and were stopped three to 24 hours post treatment by fixation with 4% neutral formalin solution which was followed by Hematoxylin-Eosin stain to show morphology.
Morphological changes in cells were monitored throughout the course of the experiment with an inverse phase-contrast microscope. After termination of the experiments, the cells fixed on the Thermanox were subjected to routine Hematoxylin-Eosin (HE) stain. The morphological characteristics of toxic cells were observed under light microscope and typical results were recorded by photographs.
For approximate quantification of Aβ toxicity of HAEC, modified procedure for trypan blue exclusion was employed. In brief, the detached cells were resuspended with an appropriate volume of culture media, 20 μl of this cell suspension was mixed with an equivalent volume of 4% Trypan-blue solution thoroughly, and allowed to sit for two minutes after mixing. Approximately 9 μl of the mixture was transferred to a hemocytometer for cell counting. The cell viability was determined by the equation: [formula] In the case of severe toxicity, where some of the cells were lysed, the total cell numbers were adjusted by that of controls. In this experiment, counts for each sample were triplicated.
The subject of data set [4] is Sprague-Dawley rats. Put plainly: Morris water maze acquisition and memory retention during intravenous Aβ infusion. In kind it is in vivo, rat. The conditions noted are these: days 7-14.
Experimental: (§2) Eleven three month old male Sprague-Dawley rats (300-350 g) were anesthetized with sodium pentobarbital (50 mg/kg, ip.) and a polyethylene cannula was inserted into the right external jugular vein to approach or enter the right atrium. […] The remaining six animals served as controls by receiving twice daily intravenous infusions of vehicle solution. Treatments were continued for 14 days, with Morris water maze "acquisition" (learning) tested during days 7-13 and water maze memory retention evaluated on day 14. Daily acquisition testing consisted of four consecutive daily trials, wherein latency to reach the submerged platform in Quadrant 2(Q2) was determined and a daily average calculated. For the memory retention trial, the submerged platform was removed and animals were placed in the quadrant opposite Q2. The percentage of time spent in the quadrant formerly containing the platform (Q2) was used as a measure of memory retention. Acquisition data was analyzed using two-way ANOVA for repeated measures and retention data was analyzed with one-way ANOVA and Student's t-test.
For data set [5], the system named is human neuroblastoma cell line (BE(2)-M17). Kind of data set: Aβ toxicity on BE(2)-M17 (trypan blue exclusion). The format is cell-based. The note with it: same concentrations as HAEC cultures, up to day eight; data not shown. From the text: Trypan blue exclusion was used for the cell viability assay.
The test system of data set [6] is basilar artery. Kind of data set: Diameter of the basilar artery in living animals after Aβ infusion. The format is in vivo, rat. On the procedure: In the experiments, the animals were infused twice daily for two weeks for an estimated final molarity of 0.5 μM. In the experiments, Aβ1-40 was used. The Aβ infused animals developed gross lung pathology. The lung capillary beds were the first to be reached by the venously infused Aβ. […] This is consistent with the conclusion that in Alzheimer's Disease, the cerebral vasculature could potentially be damaged and destroyed by circulating or locally produced Aβ.

Data set [7] deals with ET-1. Put plainly: Endogenous ET-1 release, radioimmunoassay. The note with it: competition with 125I-labeled ET-1. Further details: species or system rat. On the procedure: as §1
To investigate the possibility that Aβ releases endogenous stores of ET-1 a radioimmunoassay in which endogenous ET-1 released into the vessel buffer, would compete with ^125 I-labeled ET-1 for binding to a specific antibody was performed. […] In addition, to examine the role played by lipid peroxidation is in the vasoconstrictive mechanism, vessels were contracted in the presence of allopurinol, which inhibits the conversion of xanthine dehydrogenase to xanthine oxidase, preventing lipid peroxidation.

For data set [8], the system named is Sprague-Dawley rats. The conditions noted are these: rat, in vivo.
Experimental: as §2
On day 15, animals were anesthetized with sodium pentobarbital and transcardially perfused with 4% paraformaldehyde in 0.1M PBS (pH 7.4). Tissue samples from the lung, heart, kidney, liver and pancreas were collected and post-fixed in perfusate solution until histologic processing. Brains were removed and placed in perfusate for 24 hours, followed by cytoprotective storage in 30% sucrose until histologic processing. For all tissues 20 and 40 μm frozen sections were collected and stained with Mayer's Acid Hemalin followed by alkaline Congo red. Selected 20 μm brain sections were stained for glial fibrillary acidic protein (GFAP).

For “Aβ1-40: Soluble Aβ containing forty amino acids; supplied by RBI and/or MD Enterprise”, the “constriction of rat coronary artery by the peptide” value in data set [1] is recorded as “induce constriction of the coronary artery”. The “constriction of rat coronary artery by the peptide” value in data set [1] (listed as Aβ) was “small but detectable contraction”. Further, in data set [1] (10^-6 M peptides, real time recording), the “duration of constriction compared among fragments” value was “longest sustained constriction”. Further, in data set [1] (10^-7 M U46619 after 10^-6 M Aβ for fifteen minutes), the “U46619 induced vasoconstriction following Aβ treatment” value is “significantly potentiated”. Further, in data set [2], the “effect of Aβ on the ET-A antagonist induced decrease of ET-1 contraction” value is given as “in part countered” and the “enhancement in aortae from older versus younger rats” value is reported as “trend towards greater enhancement in older rats”. In data set [2] (peptide 1 μM (Aβ25-35 1 μM and 5 μM) ten minutes prior to first ET-1 dose), the “enhancement of ET-1 contraction” value is recorded as “dramatically enhanced the contraction of rat aorta by ET-1”. For the same substance, in data set [2] (single dose ET-1 5×10^-9 M), the “enhancement of ET-1 contraction in the absence of endothelium” value is reported as “enhance contraction of rat aortae to an extent not significantly different from the enhancement observed in the presence of endothelium”. Moreover, in data set [3], the “cell viability at 32 μM” value is on record as “significantly less cell viability compared to control”; the “cell viability at low concentrations” value was “not found to induce significant change of cell viability”; the “toxicity of several batches (RBI, MD, Sigma)” value is listed as “almost non-toxic to HAEC”. Besides, the “water maze acquisition and memory retention” value in data set [4] is given as “no different from that of vehicle-infused controls”. Moreover, in data set [5], the “toxic effect on differentiated BE(2)-M17 cells” value was “not toxic effect was noticed”. Also, the basilar artery diameter result in data set [6] is given as “results in constriction of this artery”. For the same substance, the “release of endogenous ET-1 into the vessel buffer” value in data set [7] is listed as “did not indicate that any unlabelled ET-1 was present”. Also, in data set [8], the “Congo red birefringence in the brains” value is on record as “no Congo red birefringence was observed”; the “perivascular gliosis in GFAP stained brain sections” value is “increased perivascular gliosis was evident”; the “severe vascular accidents in other peripheral tissues (kidney, pancreas, heart)” value is on record as “not, however, typically seen”.
